Measured values published in US8389557B2, “Triazole derivatives useful as Axl inhibitors” (Rigel Pharmaceuticals, Inc., priority 2005, dated 2013).

The compounds below were run against T1, Axl (Homo sapiens, UniProt P30530) (assay: Phospho-Akt in-cell Western assay (inhibition of Axl activity)). Settings: Table 2; Hela cells, Axl antibody cross-linking stimulation, phospho-Akt chemiluminescence.
T1 construct: endogenous in cells; host or cells: HeLa cells
T1 sequence (P30530 26-894): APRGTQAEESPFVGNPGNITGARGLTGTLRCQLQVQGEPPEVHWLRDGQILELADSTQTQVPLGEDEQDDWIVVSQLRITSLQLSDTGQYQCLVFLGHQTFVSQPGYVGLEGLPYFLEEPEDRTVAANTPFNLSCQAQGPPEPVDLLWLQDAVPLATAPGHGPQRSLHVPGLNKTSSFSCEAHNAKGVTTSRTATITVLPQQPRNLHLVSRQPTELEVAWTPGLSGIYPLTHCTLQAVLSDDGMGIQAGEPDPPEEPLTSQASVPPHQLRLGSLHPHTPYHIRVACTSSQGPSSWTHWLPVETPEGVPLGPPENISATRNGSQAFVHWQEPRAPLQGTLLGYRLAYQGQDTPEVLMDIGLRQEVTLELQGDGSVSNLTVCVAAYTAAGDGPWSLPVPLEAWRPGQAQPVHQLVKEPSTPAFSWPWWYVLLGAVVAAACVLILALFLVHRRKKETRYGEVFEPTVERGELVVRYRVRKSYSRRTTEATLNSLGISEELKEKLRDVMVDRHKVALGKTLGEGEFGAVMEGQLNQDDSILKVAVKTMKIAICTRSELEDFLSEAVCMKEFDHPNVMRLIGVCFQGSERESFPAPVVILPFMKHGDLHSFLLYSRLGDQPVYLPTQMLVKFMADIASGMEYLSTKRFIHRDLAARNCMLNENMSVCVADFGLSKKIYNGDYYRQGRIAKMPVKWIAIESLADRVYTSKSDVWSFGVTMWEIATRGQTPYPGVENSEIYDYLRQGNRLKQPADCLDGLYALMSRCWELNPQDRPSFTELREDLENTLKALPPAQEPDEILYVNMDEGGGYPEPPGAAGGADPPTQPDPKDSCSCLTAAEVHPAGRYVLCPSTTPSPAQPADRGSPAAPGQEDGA
Format: cell-based
How it was run: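 HeLa cells on poly-L-lysine, starved 24 h in 0.5% FCS DMEM with Axl/Fc 500 ng/mL, pre-treated with compound 1 h at 37° C. Axl stimulated 5 min by anti-Axl/anti-mouse antibody cross-linking. Fixed cells probed with anti-phospho-Akt and HRP secondary, chemiluminescence read.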

IC50 [µM]	Structure (SMILES)
> 20	CC(C)Oc1ccc(C(=O)n2nc(N)nc2Nc2ccc(N3CCCC3)cc2)cc1 [compound 294, 3-amino-1-(4-(iso-propoxy)phenyl)carbonyl-5-(4-(pyrrolidin-1-yl)phenylamino]-1H-1,2,4-triazole]
> 20	CC(C)(C)c1ccc(C(=O)n2nc(N)nc2Nc2ccc(N3CCCC3)cc2)cc1 [compound 298, 3-amino-1-(4-(tert-butyl)phenyl)carbonyl-5-[4-(pyrrolidin-1-yl)phenylamino]-1H-1,2,4-triazole]

Structure (SMILES)	IC50 [µM]
CC(C)(C)Oc1ccc(C(=O)n2nc(N)nc2Nc2ccc(N3CCCC3)cc2)cc1 [compound 292, 3-amino-1-(4-(tert-butoxy)phenyl)carbonyl-5-(4-(pyrrolidin-1-yl)phenylamino]-1H-1,2,4-triazole]	> 20

Same assay, conditions: Table 3; Hela cells, Axl antibody cross-linking stimulation, phospho-Akt chemiluminescence

IC50 [µM]	Structure (SMILES)
10 to 20	Nc1nc(Nc2ccc(OCCN3CCCC3)cc2)nn1C(=O)c1ccc2nn[nH]c2c1 [compound 281, 5-amino-1-(1H-benzo[d][1,2,3]triazol-5-yl)carbonyl-3-[4-[2-(pyrrolidin-1-yl)ethoxy]phenylamino]-1H-1,2,4-triazole]
< 1	Cc1ccsc1C(=O)n1nc(Nc2ccc(OCCN3CCCC3)cc2)nc1N [compound 283, 5-amino-1-(3-methylthien-2-yl)carbonyl-3-[4-[2-(pyrrolidin-1-yl)ethoxy]phenylamino]-1H-1,2,4-triazole]
< 1	Cc1ccc(C(=O)n2nc(Nc3ccc(OCCN4CCCC4)cc3)nc2N)s1 [compound 284, 5-amino-1-(5-methylthien-2-yl)carbonyl-3-[4-[2-(pyrrolidin-1-yl)ethoxy]phenylamino]-1H-1,2,4-triazole]
< 1	Nc1nc(Nc2ccc(OCCN3CCCC3)cc2)nn1C(=O)c1cccs1 [compound 285, 5-amino-1-(thien-2-yl)carbonyl-3-[4-[2-(pyrrolidin-1-yl)ethoxy]phenylamino]-1H-1,2,4-triazole]
< 1	Nc1nc(Nc2ccc(OCCN3CCCC3)cc2)nn1C(=O)c1ccc2ncccc2c1 [compound 288, 5-amino-1-(quinolin-6-yl)carbonyl-3-[4-[2-(pyrrolidin-1-yl)ethoxy]phenylamino]-1H-1,2,4-triazole]
1 to 10	CC1(C)Oc2ccc(C(=O)n3nc(Nc4ccc(N5CCCC5)cc4)nc3N)cc2NC1=O [compound 295, 5-amino-1-(2,2-dimethyl-2H-benzo[b][1,4]oxazin-3(4H)-on-6-yl)carbonyl-3-[4-(pyrrolidin-1-yl)phenylamino]-1H-1,2,4-triazole]

Same assay, conditions: Table 4; Hela cells, Axl antibody cross-linking stimulation, phospho-Akt chemiluminescence

IC50 [µM]	Structure (SMILES)
10 to 20	CC1(C)Oc2ccc(C(=O)n3nc(N)nc3Nc3ccc(N4CCCC4)cc3)cc2NC1=O [compound 296, 3-amino-1-(2,2-dimethyl-2H-benzo[b][1,4]oxazin-3(4H)-on-6-yl)carbonyl-5-[4-(pyrrolidin-1-yl)phenylamino]-1H-1,2,4-triazole]

Same assay, conditions: Table 5; Hela cells, Axl antibody cross-linking stimulation, phospho-Akt chemiluminescence

IC50 [µM]	Structure (SMILES)
> 20	CC(C)(C)OC(=O)NC1CCOc2ccc(Nc3nc(N)n(C(=O)c4ccc(C(C)(C)C)cc4)n3)cc21 (stereo not shown) [compound 273]
> 20	CC(C)Oc1ccc(C(=O)n2nc(Nc3ccc4c(c3)C(NC(=O)OC(C)(C)C)CCO4)nc2N)cc1 (stereo not shown) [compound 274]
> 20	CC(C)(C)OC(=O)NC1CCOc2ccc(Nc3nc(N)n(C(=O)c4ccc(OC(C)(C)C)cc4)n3)cc21 (stereo not shown) [compound 275]

Same assay, conditions: Table 9; Hela cells, Axl antibody cross-linking stimulation, phospho-Akt chemiluminescence

IC50 [µM]	Structure (SMILES)
1 to 10	CC(C)(C)OC(=O)NC1CCOc2ccc(Nc3nc(N)n(C(=O)c4ccc5cc[nH]c5c4)n3)cc21 (stereo not shown) [compound 276]

Same assay, conditions: inhibition of Axl activity, phospho-Akt in-cell Western assay; Table 1

Structure (SMILES)	IC50 [µM]
CN(c1ccc(OCCN2CCCC2)cc1)c1nc(N)n(C(=O)c2ccc(OC(C)(C)C)cc2)n1 [compound 272, 5-amino-1-(4-(tert-butoxy)phenyl)carbonyl-3-[4-[2-(pyrrolidin-1-yl)ethoxy]phenyl][methyl]amino-1H-1,2,4-triazole]	> 20
CC(C)(C)OC(=O)NCc1ccc(C(=O)n2nc(Nc3ccc(OCCN4CCCC4)cc3)nc2N)cc1 [compound 278, 5-amino-1-[4-((tert-butoxycarbonyl)aminomethyl)phenyl]carbonyl-3-[4-[2-(pyrrolidin-1-yl)ethoxy]phenylamino]-1H-1,2,4-triazole]	< 1
CC(C)(C)Oc1ccc(C(=O)n2nc(Nc3ccc(N4CCCC4)cc3)nc2N)cc1 [compound 291, 5-amino-1-(4-(tert-butoxy)phenyl)carbonyl-3-[4-(pyrrolidin-1-yl)phenylamino]-1H-1,2,4-triazole]	> 20

The remaining lines, values ahead:

IC50 [µM]	Structure (SMILES)
< 1	Nc1nc(Nc2ccc(OCCN3CCCC3)cc2)nn1C(=O)c1ccc(-c2ccccc2)cc1 [compound 277, 5-amino-1-(4-(phenyl)phenyl)carbonyl-3-[4-[2-(pyrrolidin-1-yl)ethoxy]phenylamino]-1H-1,2,4-triazole]
< 1	Nc1nc(Nc2ccc(OCCN3CCCC3)cc2)nn1C(=O)c1ccc(-c2csnn2)cc1 [compound 280, 5-amino-1-(4-(1,2,3-thiadiazol-4-yl)phenyl)carbonyl-3-[4-[2-(pyrrolidin-1-yl)ethoxy]phenylamino]-1H-1,2,4-triazole]
< 1	Nc1nc(Nc2ccc(OCCN3CCCC3)cc2)nn1C(=O)c1ccc(-n2cccc2)cc1 [compound 282, 5-amino-1-(4-(pyrrol-1-yl)phenyl)carbonyl-3-[4-[2-(pyrrolidin-1-yl)ethoxy]phenylamino]-1H-1,2,4-triazole]
< 1	CNc1ccc(C(=O)n2nc(Nc3ccc(OCCN4CCCC4)cc3)nc2N)cc1 [compound 286, 5-amino-1-(4-(methylamino)phenyl)carbonyl-3-[4-[2-(pyrrolidin-1-yl)ethoxy]phenylamino]-1H-1,2,4-triazole]
< 1	CSc1ccc(C(=O)n2nc(Nc3ccc(OCCN4CCCC4)cc3)nc2N)cc1 [compound 287, 5-amino-1-(4-(methylthio)phenyl)carbonyl-3-[4-[2-(pyrrolidin-1-yl)ethoxy]phenylamino]-1H-1,2,4-triazole]
> 20	Nc1nc(Nc2ccc(OCCN3CCCC3)cc2)nn1C(=O)c1c(F)cccc1F [compound 289, 5-amino-1-(2,6-difluorophenyl)carbonyl-3-[4-[2-(pyrrolidin-1-yl)ethoxy]phenylamino]-1H-1,2,4-triazole]
10 to 20	CC(C)(C)C(=O)Nc1ccc(C(=O)n2nc(Nc3ccc(OCCN4CCCC4)cc3)nc2N)cc1 [compound 290, 5-amino-1-(4-(tert-butylcarbonylamino)phenyl)carbonyl-3-[4-[2-(pyrrolidin-1-yl)ethoxy]phenylamino]-1H-1,2,4-triazole]
1 to 10	CC(C)Oc1ccc(C(=O)n2nc(Nc3ccc(N4CCCC4)cc3)nc2N)cc1 [compound 293, 5-amino-1-(4-(iso-propoxy)phenyl)carbonyl-3-[4-(pyrrolidin-1-yl)phenylamino]-1H-1,2,4-triazole]
> 20	CC(C)(C)c1ccc(C(=O)n2nc(Nc3ccc(N4CCCC4)cc3)nc2N)cc1 [compound 297, 5-amino-1-(4-(tert-butyl)phenyl)carbonyl-3-[4-(pyrrolidin-1-yl)phenylamino]-1H-1,2,4-triazole]
1 to 10	CN(C)c1ccc(C(=O)n2nc(Nc3ccc(N4CCCC4)cc3)nc2N)cc1 [compound 299, 5-amino-1-(4-(dimethylamino)phenyl)carbonyl-3-[4-(pyrrolidin-1-yl)phenylamino]-1H-1,2,4-triazole]
1 to 10	Cc1ccc(C(=O)n2nc(Nc3ccc(N4CCCC4)cc3)nc2N)cc1 [compound 300, 5-amino-1-(4-(methyl)phenyl)carbonyl-3-[4-(pyrrolidin-1-yl)phenylamino]-1H-1,2,4-triazole]
